Here are results for 4 compounds from patent publication US11191743B2, “Modulators of zinc activated cation channel” (Dignity Health, priority 2016, dated 2021).

SMILES strings stand for the structures. “Also recorded” adds a separate entry of the source. Like-named read-outs stand apart in the source and are kept apart here.

Data set [1] deals with iTreg-induced immunosuppression of T cell division. The class given is cell-based, human. As for the experimental part: Live Treg cells (CD4+CD25^high) and conventional T cells (Tconv cells) (CD4+CD25−) are obtained by immunomagnetic cell isolation kit from human iTreg. Tconv cells are labeled with CFSE (10 uM for 10 min). After washing, the labeled cells are distributed into multiple wells (1×10^5/well) in a round bottom 96-well plate with various numbers (2-fold serial dilutions from 1×10^5/well) of Treg cells in each well. The mixed cells (Treg and Tconv with different ratios) are co-cultured for 72 h in the presence of anti-CD3/CD28-coated sulfate latex beads. The intensity of CFSE fluorescence that declines upon division of the labeled cells is measured by flow cytometry.
As disclosed throughout the disclosure, and specifically in FIG. 7, Zinc and/or d-tubocurarine has an influence on iTreg suppression function. CFSE Immunosuppression Assay uses a cell permeable reactive fluorescent dye, CFSE. After entering cells, CFSE interacts with intracellular proteins, and permanently stain the cell. The fluorescence intensity will decrease along with the T cell division.

Data set [2] concerns the target T1, ZACN (Homo sapiens, UniProt Q401N2).
T1 sequence (Q401N2 26-412): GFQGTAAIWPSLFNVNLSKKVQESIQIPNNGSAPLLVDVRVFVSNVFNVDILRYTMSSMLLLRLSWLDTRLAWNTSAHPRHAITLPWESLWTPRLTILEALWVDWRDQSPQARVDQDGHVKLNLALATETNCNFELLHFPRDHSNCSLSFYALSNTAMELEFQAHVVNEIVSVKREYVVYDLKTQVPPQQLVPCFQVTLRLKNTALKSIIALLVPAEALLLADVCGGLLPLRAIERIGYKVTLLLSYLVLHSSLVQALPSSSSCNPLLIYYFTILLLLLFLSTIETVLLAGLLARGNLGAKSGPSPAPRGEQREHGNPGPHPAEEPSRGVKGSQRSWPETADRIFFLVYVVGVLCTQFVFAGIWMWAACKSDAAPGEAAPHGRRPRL
Further details: host or cells: HEK cells (exogenous expression). Particulars: cited from earlier work.

Data set [3] deals with T1, ZACN. Briefly: Two-electrode voltage-clamp, ZACN expressed in Xenopus laevis oocytes: agonist-induced current. The class given is cell-based. Also on record: host or cells: Xenopus laevis oocytes injected with cRNA (pGEMHE vector, T7 transcript). The source says:
The cDNA encoding wild type, human ZACN was purchased from OpenBiosystems, and cloned into the pGEMHE vector in the T7 orientation. For cRNA synthesis, cDNA templates were PCR amplified using primers that cover the M13 forward and reverse regions and high fidelity Phusion DNA polymerase (New England Biolab, Ipswich, Mass., USA). PCR products were then purified and served as templates for cRNA synthesis. cRNAs were transcribed by T7 RNA polymerase (Promega, Madison, Wis., USA) using standard in vitro transcription protocols. After digestion of the DNA template by RNase-free DNase I, cRNAs were purified and resuspended in diethyl pyrocarbonate (DEPC)-treated water. cRNA integrity was examined on a 1% agarose gel, and cRNA concentration was determined by optical density measurements at 260 nm using an Eppendorf Biophotometer.
Oocytes were harvested from female Xenopus laevis (Xenopus I, Ann Arbor, Mich., USA), using the protocol “Xenopus Care and Use” approved by the Institutional Animal Care and Use Committee of the St. Joseph's Hospital and Medical Center. Stage VI oocytes were selected and incubated at 16° C. before injection. Micropipettes for injection were pulled from borosilicate glass (Drummond Scientific, Broomall, Pa., USA) on a Sutter P87 horizontal puller, and the tips were cut with forceps to ≈40 μm in diameter. cRNAs encoding ZACN was drawn up into the micropipette and injected into oocytes with a Nanoject micro-injection system (Drummond Scientific) in a total volume of ˜60 nl and total cRNA of ˜20 ng for each oocyte.
Two to 5 days after injection, oocytes expressing ZACN were placed in a home-made, small volume chamber and a 16-channel manifold, continuously perfused with oocyte Ringer's solution (OR2), which consisted of (in mM) 92.5 NaCl, 2.5 KCl, 1 CaCl2, 1 MgCl2 and 5 HEPES, pH 7.5. ValveLink 16 computer-controlled perfusion system was used to switch solutions between the OR2 and a test solution. The perfusion chamber was grounded through an agar salt bridge to avoid alterations in junction potential between the Ag/AgCl grounding electrode and solution when solution/drug changes occurred. Oocytes were voltage-clamped at −70 mV to measure agonist-induced currents using an AxoClamp 900A amplifier (Axon Instruments, Foster City, Calif., USA). The current signal was low-pass filtered at 20 Hz with the built-in 4-pole low-pass Bessel filter and digitized at 100 Hz with a Digidata1440a and pClamp 10 software (Molecular Devices).
For each oocyte, concentration-inhibition curves for drug-induced inhibition of zinc-activated current responses or concentration response curves for agonist-induced current of the ZACN were fit to the Hill equation using least squares methods (Prism 6.0, GraphPad Software, Inc., San Diego, Calif., USA) to derive IC50 or EC50 values (the concentration required for inducing a half maximal current), Hill coefficients (the slope factor), and maximum current levels in absolute terms. Current levels in each oocyte were normalized to the maximum current in the absence of the inhibitor, allowing normalized data to be averaged across multiple oocytes and to be fit again to the Hill equation. All data are presented as mean±SEM (standard error).

The target in data set [4] is T2, GABAA (α1β2γ2) receptor (Homo sapiens, UniProt P14867+P18507+P47870).
T2 construct: expressed in transfected cells
T2 sequence (P47870 25-512): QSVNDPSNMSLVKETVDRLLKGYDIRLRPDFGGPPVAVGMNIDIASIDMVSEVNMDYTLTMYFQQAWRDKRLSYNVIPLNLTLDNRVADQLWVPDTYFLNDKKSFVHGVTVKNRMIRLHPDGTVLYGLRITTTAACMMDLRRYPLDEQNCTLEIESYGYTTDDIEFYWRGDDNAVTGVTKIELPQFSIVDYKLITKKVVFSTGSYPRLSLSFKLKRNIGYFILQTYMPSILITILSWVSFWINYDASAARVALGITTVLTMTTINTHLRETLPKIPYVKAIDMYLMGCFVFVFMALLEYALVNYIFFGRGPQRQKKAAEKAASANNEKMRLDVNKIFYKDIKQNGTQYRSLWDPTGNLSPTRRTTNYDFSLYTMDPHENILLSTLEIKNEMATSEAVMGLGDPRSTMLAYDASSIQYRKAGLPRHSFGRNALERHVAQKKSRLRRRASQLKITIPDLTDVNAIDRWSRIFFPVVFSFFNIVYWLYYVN
T2 sequence (P18507 40-475): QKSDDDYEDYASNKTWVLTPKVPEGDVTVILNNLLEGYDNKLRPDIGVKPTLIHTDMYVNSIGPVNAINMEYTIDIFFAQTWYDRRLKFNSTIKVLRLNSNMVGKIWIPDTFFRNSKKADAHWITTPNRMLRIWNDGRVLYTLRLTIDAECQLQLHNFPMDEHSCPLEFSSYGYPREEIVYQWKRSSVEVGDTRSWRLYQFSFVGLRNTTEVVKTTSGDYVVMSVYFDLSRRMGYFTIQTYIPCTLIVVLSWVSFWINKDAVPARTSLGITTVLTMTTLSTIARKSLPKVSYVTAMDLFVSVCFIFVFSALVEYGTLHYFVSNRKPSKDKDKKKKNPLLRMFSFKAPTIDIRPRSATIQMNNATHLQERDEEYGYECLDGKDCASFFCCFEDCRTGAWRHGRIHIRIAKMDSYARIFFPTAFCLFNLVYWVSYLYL
T2 sequence (P14867 28-456): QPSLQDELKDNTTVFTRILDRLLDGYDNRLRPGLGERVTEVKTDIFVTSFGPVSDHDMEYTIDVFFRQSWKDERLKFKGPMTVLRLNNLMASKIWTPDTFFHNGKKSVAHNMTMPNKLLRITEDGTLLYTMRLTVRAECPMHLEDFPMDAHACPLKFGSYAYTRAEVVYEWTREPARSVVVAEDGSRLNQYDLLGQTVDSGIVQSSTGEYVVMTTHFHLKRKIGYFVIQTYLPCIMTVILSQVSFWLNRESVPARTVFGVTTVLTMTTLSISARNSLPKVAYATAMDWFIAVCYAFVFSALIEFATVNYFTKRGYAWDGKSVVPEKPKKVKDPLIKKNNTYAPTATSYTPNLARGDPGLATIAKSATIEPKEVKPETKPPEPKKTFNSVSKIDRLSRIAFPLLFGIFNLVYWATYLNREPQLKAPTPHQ
Briefly: Application of NBT to other Cys-loop receptors. The class given is cell-based. Particulars: listed as NBT. The source says:
(§1) To date the only known agonist and antagonist for ZACN are Zn^2+ (agonist) and d-tubocurarine (antagonist).

For data set [5], the target named is T3, nACh (α4β2) receptor (Homo sapiens, UniProt P17787+P43681).
T3 construct: expressed in transfected cells
T3 sequence (P43681 29-627): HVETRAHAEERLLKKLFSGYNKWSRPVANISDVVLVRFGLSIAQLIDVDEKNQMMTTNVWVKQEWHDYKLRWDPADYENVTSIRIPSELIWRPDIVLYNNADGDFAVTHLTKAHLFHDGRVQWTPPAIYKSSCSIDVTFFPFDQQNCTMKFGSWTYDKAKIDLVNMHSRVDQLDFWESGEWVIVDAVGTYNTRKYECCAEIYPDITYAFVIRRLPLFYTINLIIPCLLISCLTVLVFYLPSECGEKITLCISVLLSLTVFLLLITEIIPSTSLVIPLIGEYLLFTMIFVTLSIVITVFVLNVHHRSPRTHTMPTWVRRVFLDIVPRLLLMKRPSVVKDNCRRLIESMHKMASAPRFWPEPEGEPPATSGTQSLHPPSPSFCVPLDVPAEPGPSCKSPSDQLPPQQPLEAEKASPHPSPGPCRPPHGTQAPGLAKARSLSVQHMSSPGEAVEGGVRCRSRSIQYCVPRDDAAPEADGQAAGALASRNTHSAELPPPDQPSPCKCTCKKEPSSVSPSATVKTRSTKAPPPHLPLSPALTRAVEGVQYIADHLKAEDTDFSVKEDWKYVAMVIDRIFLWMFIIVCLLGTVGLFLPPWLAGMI
T3 sequence (P17787 26-502): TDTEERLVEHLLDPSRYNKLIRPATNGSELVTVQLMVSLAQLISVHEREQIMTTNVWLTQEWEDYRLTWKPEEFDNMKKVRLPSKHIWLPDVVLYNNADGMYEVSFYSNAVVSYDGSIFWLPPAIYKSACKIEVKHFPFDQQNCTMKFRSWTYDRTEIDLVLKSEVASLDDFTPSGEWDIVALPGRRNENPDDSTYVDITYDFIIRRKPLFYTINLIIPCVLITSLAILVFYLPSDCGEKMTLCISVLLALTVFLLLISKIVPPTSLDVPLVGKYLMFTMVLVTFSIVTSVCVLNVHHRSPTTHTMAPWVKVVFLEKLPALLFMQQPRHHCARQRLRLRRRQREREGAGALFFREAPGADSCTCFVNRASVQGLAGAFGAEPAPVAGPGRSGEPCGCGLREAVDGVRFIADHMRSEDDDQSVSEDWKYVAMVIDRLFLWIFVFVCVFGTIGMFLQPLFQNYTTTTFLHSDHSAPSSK
Briefly: Application of NBT to other Cys-loop receptors. Type of data set: cell-based. Particulars: listed as NBT.
Excerpt: as §1

Data set [6] has as its target T4, serotonin (5HT3A) receptor (Homo sapiens, UniProt P46098).
T4 construct: expressed in transfected cells
T4 sequence (P46098 24-478): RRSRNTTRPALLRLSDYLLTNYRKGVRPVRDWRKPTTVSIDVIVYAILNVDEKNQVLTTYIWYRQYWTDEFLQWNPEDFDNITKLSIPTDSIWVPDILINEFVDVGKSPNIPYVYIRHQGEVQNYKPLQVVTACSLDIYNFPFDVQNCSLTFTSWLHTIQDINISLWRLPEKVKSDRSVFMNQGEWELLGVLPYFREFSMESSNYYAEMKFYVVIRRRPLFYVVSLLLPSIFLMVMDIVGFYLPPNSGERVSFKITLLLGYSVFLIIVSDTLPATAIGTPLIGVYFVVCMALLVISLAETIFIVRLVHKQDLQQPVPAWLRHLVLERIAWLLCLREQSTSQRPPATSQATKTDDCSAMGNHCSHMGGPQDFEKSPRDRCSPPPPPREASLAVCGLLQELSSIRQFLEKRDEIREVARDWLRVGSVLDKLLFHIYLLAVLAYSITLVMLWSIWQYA
In words: Application of NBT to other Cys-loop receptors. The class given is cell-based. Particulars: listed as NBT.
Excerpt: as §1

Data set [7] deals with T5, GABAC (ρ1) receptor (Homo sapiens, UniProt P24046).
T5 construct: expressed in transfected cells
T5 sequence (P24046 22-479): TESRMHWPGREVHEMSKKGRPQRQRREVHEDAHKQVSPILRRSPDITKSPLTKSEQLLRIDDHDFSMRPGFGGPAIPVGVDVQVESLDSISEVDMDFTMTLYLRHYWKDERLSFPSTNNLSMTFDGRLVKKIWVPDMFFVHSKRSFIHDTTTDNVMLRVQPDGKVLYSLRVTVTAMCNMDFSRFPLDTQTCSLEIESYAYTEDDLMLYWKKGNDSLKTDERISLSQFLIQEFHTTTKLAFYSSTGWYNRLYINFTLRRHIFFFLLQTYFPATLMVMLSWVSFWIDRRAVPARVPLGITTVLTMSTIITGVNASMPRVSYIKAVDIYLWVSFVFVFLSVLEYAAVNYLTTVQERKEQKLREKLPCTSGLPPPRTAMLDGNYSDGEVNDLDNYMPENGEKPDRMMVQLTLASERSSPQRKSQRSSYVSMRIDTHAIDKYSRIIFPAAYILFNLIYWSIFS
In words: Application of NBT to other Cys-loop receptors. Type of data set: cell-based. The note with it: listed as NBT.
Excerpt: as §1

The target of data set [8] is T6, nACh (α7) receptor (Homo sapiens, UniProt P36544).
T6 construct: expressed in transfected cells
T6 sequence (P36544 23-502): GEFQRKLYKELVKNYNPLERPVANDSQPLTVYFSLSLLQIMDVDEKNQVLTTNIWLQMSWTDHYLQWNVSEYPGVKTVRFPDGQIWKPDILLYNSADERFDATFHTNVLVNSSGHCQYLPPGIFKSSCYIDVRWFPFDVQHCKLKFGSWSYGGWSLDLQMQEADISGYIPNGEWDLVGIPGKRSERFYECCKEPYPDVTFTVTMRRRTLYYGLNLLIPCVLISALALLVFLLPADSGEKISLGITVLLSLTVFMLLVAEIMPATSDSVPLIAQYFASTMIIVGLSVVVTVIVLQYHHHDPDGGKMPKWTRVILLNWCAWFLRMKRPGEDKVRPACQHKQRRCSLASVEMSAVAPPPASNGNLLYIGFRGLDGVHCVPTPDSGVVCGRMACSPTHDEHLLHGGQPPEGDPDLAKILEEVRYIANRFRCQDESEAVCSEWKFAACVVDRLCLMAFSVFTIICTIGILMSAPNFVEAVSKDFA
In words: Application of NBT to other Cys-loop receptors. The class given is cell-based. Particulars: listed as NBT.
Excerpt: as §1

Data set [9] deals with T7, glycine (α1) receptor (Homo sapiens, UniProt P23415).
T7 construct: expressed in transfected cells
T7 sequence (P23415 29-457): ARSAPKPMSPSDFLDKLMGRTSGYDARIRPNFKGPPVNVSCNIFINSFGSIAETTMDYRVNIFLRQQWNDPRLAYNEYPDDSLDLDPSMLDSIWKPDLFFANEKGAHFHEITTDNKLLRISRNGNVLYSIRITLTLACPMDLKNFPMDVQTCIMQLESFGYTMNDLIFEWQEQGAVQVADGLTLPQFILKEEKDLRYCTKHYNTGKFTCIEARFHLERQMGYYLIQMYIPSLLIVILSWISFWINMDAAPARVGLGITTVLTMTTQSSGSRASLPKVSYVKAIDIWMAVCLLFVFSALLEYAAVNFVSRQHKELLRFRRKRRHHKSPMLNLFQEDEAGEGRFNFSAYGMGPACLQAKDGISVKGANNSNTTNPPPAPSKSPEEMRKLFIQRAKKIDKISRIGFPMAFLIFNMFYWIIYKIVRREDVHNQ
In words: Application of NBT to other Cys-loop receptors. The class given is cell-based. Particulars: listed as NBT.
Excerpt: as §1

Data set [10] concerns the target T8, GABAA (α6β2δ) receptor (Homo sapiens, UniProt O14764+P47870+Q16445).
T8 construct: expressed in transfected cells
Briefly: Application of NBT to other Cys-loop receptors. Type of data set: cell-based. The note with it: listed as NBT.
Excerpt: as §1

Data set [11] relates to iTreg cells. Briefly: Calcium influx assay in Treg cells. Type of data set: cell-based, human. The procedure: Treg cells were loaded with calcium sensitive fluorescent dye X-Rhod-1 AM (cell permeant) (2 μM) for 60 min at room temperature. After wash, the cells were placed onto a glass-bottom petri dish with coated glass surface to allow cells attached to the glass surface. The fluorescence was detected using a microscope-based detection system with a different filter set (excitation filter ET560/40x, T585LPxr dichroic mirror, and ET630/75m emission filter). The fluorescence signal, first in the absence and then in the presence of a ZACN agonist, was low-pass filtered with a signal filter at 1 Hz and digitized with a Digidata1440 digitizer at 10 Hz.

T8 sequence (Q16445 20-453): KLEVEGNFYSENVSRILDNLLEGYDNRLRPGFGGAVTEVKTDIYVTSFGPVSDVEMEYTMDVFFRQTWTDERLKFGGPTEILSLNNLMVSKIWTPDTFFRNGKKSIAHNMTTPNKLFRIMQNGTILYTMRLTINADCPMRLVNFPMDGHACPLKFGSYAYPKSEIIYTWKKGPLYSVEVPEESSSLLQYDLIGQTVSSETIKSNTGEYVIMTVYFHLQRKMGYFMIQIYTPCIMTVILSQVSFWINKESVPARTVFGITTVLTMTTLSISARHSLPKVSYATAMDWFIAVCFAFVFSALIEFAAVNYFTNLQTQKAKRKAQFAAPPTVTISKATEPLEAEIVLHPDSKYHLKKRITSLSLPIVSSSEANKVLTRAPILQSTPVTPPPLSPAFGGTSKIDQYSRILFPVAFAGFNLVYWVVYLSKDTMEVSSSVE
T8 sequence (P47870 25-512 limits assumed): as the sequence (P47870 25-512) above
T8 sequence (O14764 17-452 limits assumed): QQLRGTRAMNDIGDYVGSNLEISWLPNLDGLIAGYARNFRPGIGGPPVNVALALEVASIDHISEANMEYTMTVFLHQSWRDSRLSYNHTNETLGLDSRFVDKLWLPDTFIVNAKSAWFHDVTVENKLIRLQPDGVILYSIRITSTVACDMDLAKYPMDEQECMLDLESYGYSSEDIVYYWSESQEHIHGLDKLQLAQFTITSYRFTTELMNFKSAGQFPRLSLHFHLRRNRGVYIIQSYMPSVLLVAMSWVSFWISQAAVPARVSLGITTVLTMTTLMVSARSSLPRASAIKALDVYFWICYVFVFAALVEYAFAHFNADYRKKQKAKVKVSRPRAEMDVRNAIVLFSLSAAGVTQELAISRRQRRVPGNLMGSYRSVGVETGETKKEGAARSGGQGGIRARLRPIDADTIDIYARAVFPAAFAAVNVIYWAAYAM

As to `COc1cc2c3cc1Oc1cc(ccc1O)C[C@@H]1c4c(cc(OC)c(O)c4Oc4ccc(cc4)C[C@@H]3N(C)CC2)CC[N+]1(C)C` [d-tubocurarine], the “influence on iTreg suppression function” value in [1] is “inhibited the iTreg-induced immunosuppression of T cell division”. For the same compound, the “effect on spontaneous activity of ZACN in HEK cells” value in data set [2] is “blocked”.
Take `COc1cc(-c2ccc(-n3nc(-c4ccccc4)n[n+]3-c3ccc([N+](=O)[O-])cc3)c(OC)c2)ccc1-n1nc(-c2ccccc2)n[n+]1-c1ccc([N+](=O)[O-])cc1` [Nitro Blue Tetrazolium]: the “ZACN recovery from activation, compared with ZnCl2” value in data set [3] was “much slower”. Also, in data set [3], the “agonist activity on human ZACN (words)” value is listed as “selective agonist”. For the same compound, the “response to NBT application” value in data set [4], in data set [5], in [6], in data set [7], in [8] and in data set [9] was “elicited no response; also recorded: no agonist or antagonist effect” in each case. In addition, the “response to NBT application” value in data set [10] is recorded as “elicited no response; also recorded: no agonist or antagonist effect”.
As for `[Cl-].[Cl-].[Zn+2]` [ZnCl2, Zinc chloride], the “ZnCl2 EC50 in Xenopus oocytes relative to HEK cells (fold greater)” value in data set [3] is “approximately 3 fold”. In addition, the “approximate EC80 Zn2+ concentration for this receptor” value in [3] was approximately 2000 µM. Besides, the EC50 in data set [3] (ZACN expressed in X. laevis oocytes, read-out: EC50 in activating ZACN) was 1640 ± 56 µM; in [3] (ZACN expressed in X. laevis oocytes, read-out: EC50 on ZACN), 1660 µM; in [3] (read-out: approximate EC50 Zn2+ concentration for this receptor), approximately 500 µM; in data set [2] (HEK cells, read-out: ZnCl2 EC50 for ZACN expressed in HEK cells), 540 µM. For the same compound, the “intracellular calcium in iTreg cells” value in [11] is listed as “intracellular calcium increase”. The “effect on T cell viability” value in [1] (high concentration, 1 mM) is recorded as “killed T cells”. Besides, the “activation of ZACN in HEK cells” value in data set [2] was “activated this receptor dose-dependently”.
In the case of `O=C(Nc1cc(C(=O)Nc2ccc(S(=O)(=O)O)cc2)cc(C(=O)Nc2ccc(S(=O)(=O)O)cc2)c1)Nc1cc(C(=O)Nc2ccc(S(=O)(=O)O)cc2)cc(C(=O)Nc2ccc(S(=O)(=O)O)cc2)c1` [NF-110], the “agonist activity on human ZACN (words)” value in data set [3] is recorded as “agonist”.
